{"source": "patent US5888744A", "about": "“Detection and separation of aminoglycosides by binding to immobilized lysozyme or α-lactalbumin” (The United States of America, as represented by the …, priority 1995, dated 1999)", "key": {"immobilized lysozyme [1]": {"molecular_target": "T1, immobilized lysozyme (Gallus gallus, UniProt P00698)", "experiment": "affinity chromatography on immobilized lysozyme (agarose gel), fluorescamine detection", "format": "binding", "settings": "for binding by the affinity column: solubilized in water; for binding by the immobilized lysozyme: 25 ppm in water, eluted with 10 mM sodium citrate buffer, pH 4.0", "experimental": "This example illustrates an affinity chromatography method for the removal of aminoglycosides from biological fluids either for purification of the aminoglycoside or purification of the fluid by removal of aminoglycosides. Lysozyme and α-lactalbumin are immobilized using Affi-Gel 10® (N-hydroxysuccinimide ester agarose gel). A 1 ml aliquot of Affi-Gel 10® is transferred to a 5 ml disposable column, the solvent is drained, and the gel is washed with 3 bed volumes of cold (4° C.) distilled, deionized water. A 2 ml aliquot of lysozyme, 25 mg/ml in 0.1M 3-(n-morpholino)-propanesulphonic acid buffer (MOPS), pH 7.0, is added to the gel within 10 minutes of the water wash. The column is capped, contents mixed to form a uniform suspension, and incubated at 4° C. for 4 hour on a rotator. After incubation, the effluent is collected to determine unbound protein using the BCA® (Bicinchoninic acid, Pierce, Rockford, IL.) method. The remaining active sites on the agarose support are blocked by incubating 1 ml of 0.1M ethylene diamine (in 0.1M MOPS, pH 7.0) with agarose support for 1 hour at 4° C. on a rotator. The gel is washed with MOPS to remove any unbound material (OD280nm =0). α-lactalbumin is solubilized in 0.1M MOPS, 80 mM calcium chloride, pH 7.0 and is immobilized on Affi-Gel® using the same procedure described above for lysozyme.\nAffinity columns are prepared by adding 1 ml of agarose gel containing immobilized enzyme to 5 ml disposable columns and draining the solvent. The gel is washed with three bed volumes of cold (4° C.) distilled, deionized water. The immobilized lysozyme is activated by washing the gel with 2 ml of 0.1M NaOH at a flow rate of 1 ml/min followed by 4 bed volumes of cold (4° C.) distilled, deionized water to remove NaOH. […] Aqueous solutions of Hygromycin B, concentrations of 1-100 ppm in distilled deionized water, are applied to the affinity columns and allowed to flow by gravity at approximately 1 ml/min. The flow through was collected to determine the amount of unbound hygromycin B. The columns are washed using four 1.0 ml aliquots of water followed by four 1.0 ml aliquots of 10 mM sodium citrate buffer, pH 4.0. The fluorescence of all fractions are determined as described below. Approximately 29 mg of lysozyme (approximately 53% immobilization efficiency; n=12) and 18 mg of α-lactalbumin (approximately 36% immobilization efficiency; n=7) are immobilized per ml of agarose gel using a 4 hour incubation time.\nAminoglycosides can be detected by fluorescence derivatization using fluorescamine (De Silva et al, Anal. Chem., Vol. 47, 714-718, 1975, herein incorporated by reference). The fluorescence assay has a detection limit of 5 ppm for hygromycin B in citrate. […] The affinity column also binds neomycin B, gentamicin, streptomycin, and dihydrostreptomycin. The fluorescence is detected using a Perkin Elmer luminescence spectrometer at an excitation of 395 nm and an emission of 485 nm. In some cases, TLC analysis (Medina et al, IN Residues of Veterinary Drugs in Food, Haagsma et al ED., Proc. EuroResidue II Conference, Veldhoven, The Netherlands, May 3-5, 1993; J. Chromatography, Vol. 663, 127-135, 1995, both herein incorporated by reference) is performed using the eluate from the affinity columns. The solvent is evaporated from the eluates, the samples reconstituted 1:1 using 95% ethanol, and applied to a Whatman LHK-PD silica gel plate with preabsorbant zones (10×10 cm; 9 lanes). The gel plate is developed for approximately 20 minutes with acetone/ethanol/ammonium hydroxide; 1:1:1, dried in a vacuum oven, cooled to room temperature, and dipped for approximately 4 seconds in 0.02% fluorescamine (acetone/hexane; 1:14). The plate is dried, sprayed lightly with 0.2M sodium citrate buffer, pH 3.0-5.0, with optimal signal at approximately pH 4.0, and the fluorescent bands are detected using an ultraviolet light box at a wavelength of 365 nm. […]"}, "[2]": {"molecular_target": "T2, immobilized α-lactalbumin (Bos taurus, UniProt P00711)", "T2 sequence (P00711 20-142)": "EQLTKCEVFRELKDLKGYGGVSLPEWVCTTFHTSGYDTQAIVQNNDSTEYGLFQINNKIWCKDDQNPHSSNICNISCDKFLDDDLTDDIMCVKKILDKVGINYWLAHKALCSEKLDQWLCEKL", "experiment": "affinity chromatography on immobilized α-lactalbumin (agarose gel), fluorescamine detection", "format": "binding", "experimental": "This example illustrates an affinity chromatography method for the removal of aminoglycosides from biological fluids either for purification of the aminoglycoside or purification of the fluid by removal of aminoglycosides. Lysozyme and α-lactalbumin are immobilized using Affi-Gel 10® (N-hydroxysuccinimide ester agarose gel). A 1 ml aliquot of Affi-Gel 10® is transferred to a 5 ml disposable column, the solvent is drained, and the gel is washed with 3 bed volumes of cold (4° C.) distilled, deionized water. A 2 ml aliquot of lysozyme, 25 mg/ml in 0.1M 3-(n-morpholino)-propanesulphonic acid buffer (MOPS), pH 7.0, is added to the gel within 10 minutes of the water wash. The column is capped, contents mixed to form a uniform suspension, and incubated at 4° C. for 4 hour on a rotator. […]\nAffinity columns are prepared by adding 1 ml of agarose gel containing immobilized enzyme to 5 ml disposable columns and draining the solvent. […] The fluorescence of all fractions are determined as described below. […]\nAminoglycosides can be detected by fluorescence derivatization using fluorescamine (De Silva et al, Anal. Chem., Vol. 47, 714-718, 1975, herein incorporated by reference). The fluorescence assay has a detection limit of 5 ppm for hygromycin B in citrate. […] The fluorescence is detected using a Perkin Elmer luminescence spectrometer at an excitation of 395 nm and an emission of 485 nm. […]"}, "immobilized rat albumin": {"molecular_target": "immobilized rat albumin (Rattus norvegicus, UniProt P02770)", "experiment": "binding by immobilized rat albumin (preliminary results)"}, "immobilized lysozyme [3]": {"molecular_target": "T1, immobilized lysozyme", "experiment": "affinity chromatography on immobilized lysozyme (agarose gel), fluorescamine detection", "format": "binding", "settings": "in adulterated biological fluids, without prior deionization"}, "lysozyme": {"molecular_target": "lysozyme (Gallus gallus, UniProt P00698)", "experiment": "competitive binding assay, spectinomycin-FITC tracer and latex lysozyme-particles (particle concentration fluorescent assay)", "settings": "for displacement or competition for the binding sites (bound spectinomycin-FITC): spectinomycin-FITC 4.9 ng and 2.45 ng", "experimental": "This example illustrates the development of an aminoglycoside competitive binding assay using spectinomycin as the test aminoglycoside to confirm the presence of aminoglycosides in aqueous tissue extracts. Lysozyme is immobilized onto latex particles using the following method. Carboxylated latex particles are dispersed by sonication, 10 pulses of 75% duty cycle using power 3. Aliquots of 0.2 ml particles are transferred into 10 ml conical polypropylene tubes. The carboxyls are activated by adding 150 mg N-ethyl-N^3 (3-dimethylaminopropyl)-carbodiimide hydrochloride (EDC) and allowed to stand for approximately 15-20 minutes at approximately room temperature. Two ml of 0.1 mg/ml lysozyme in pH 7, 0.1M phosphate buffer is heated at […] for approximately 30 minutes and then is added to the activated particles drop by drop while mixing gently. The mixture is incubated at 37° C. for approximately 1.5 hours. The derivatized latex (latex-lysozyme) is centrifuged at approximately 8225×g (approximately 10,000 rpm) for approximately 5 minutes at approximately 4° C. The supernatant is assayed for protein content and compared with initial protein concentration using a Biorad protein assay. The latex-lysozyme is washed twice with 2 ml of pH 7 phosphate buffer and centrifuged at approximately 3,000×g for approximately 10 minutes. Four ml of phosphate buffer containing 0.1% sodium azide and 0.015% Brij surfactant is added to the latex lysozyme and the mixture is sonicated with 10 pulses prior to storage at 4° C.\nTo prepare the label for the assay, spectinomycin base (0.01 mM) and FITC (0.02 mM) are dissolved separately in 0.5 ml of 10 mM dibasic phosphate buffer adjusted to pH 8.8 with 10 mM monobasic phosphate buffer. The mixture is mixed gently for 2 hours at room temperature prior to storage at 4° C. The labeling is carried out in brown vials or in tubes wrapped with aluminum foil to prevent photodegradation of the fluorescent compounds. Dilutions are made such that 20 μl contains approximately 5 ng spectinomycin-FITC. Completion of derivatization is screened by thin layer chromatography using 10 ml of developing solvent, methanol:chloroform:acetone:ammonium hydroxide in a ratio of 3:3:3:1. The reaction mixture is diluted in distilled water, 1:100, and applied in 1 μl quantities to TLC plates and developed for approximately 10 minutes in a 118 ml capacity round glass bottle. The derivatized compound is compared to a 0.1 μM FITC sample. […]\nBinding and competition interactions are assessed using lysozyme-particles containing 0.6 pg protein in 10 μl. […] In the 2-step saturation binding assay, the displacement of the bound spectinomycin-FITC is determined by adding unlabeled spectinomycin, 20 μl of 100 ng/ml, after the 30 minute incubation with spectinomycin-FITC. […]"}, "[4]": {"settings": "cited from earlier work"}}, "note": "Like-named read-outs stand apart in the source and are kept apart here.", "data": [{"molecule": "CN[C@@H]1C[C@H](N)[C@@H](O)[C@H](O[C@H]2O[C@H](CO)[C@H](O)[C@@H]3O[C@@]4(O[C@@H]23)O[C@H]([C@H](N)CO)[C@H](O)[C@H](O)[C@H]4O)[C@H]1O", "note": "[Hygromycin B]", "values": [{"measurement": "binding by the affinity column", "setting": "immobilized lysozyme [1]; 10 ppm (5 ml)", "value": "completely bound"}, {"measurement": "binding by the immobilized lysozyme", "setting": "immobilized lysozyme [1]", "value": "completely bound"}, {"measurement": "binding by the affinity column", "setting": "immobilized lysozyme [1]; 60 ppm (10 ml)", "value": "completely bound"}, {"measurement": "binding capacity", "setting": "immobilized lysozyme [1]; immobilized lysozyme", "value": "0.5 mg per ml of affinity gel"}, {"measurement": "difference in binding capacity, lysozyme vs α-lactalbumin", "setting": "immobilized lysozyme [1]; per ml of affinity gel", "value": 5, "unit": "fold"}, {"measurement": "binding capacity", "setting": "[2]; immobilized α-lactalbumin", "value": "0.1 mg per ml of affinity gel"}, {"measurement": "binding by immobilized rat albumin", "setting": "immobilized rat albumin", "value": "binding"}, {"measurement": "binding to immobilized lysozyme", "setting": "immobilized lysozyme [3]", "value": "does not bind"}]}, {"molecule": "CN[C@@H]1[C@H](O[C@H]2[C@H](O[C@H]3[C@H](O)[C@@H](O)[C@H](NC(=N)N)[C@@H](O)[C@@H]3NC(=N)N)O[C@@H](C)[C@]2(O)CO)O[C@@H](CO)[C@H](O)[C@H]1O", "note": "[dihydrostreptomycin]", "values": [{"measurement": "binding to the lysozyme affinity column (qualitative)", "setting": "immobilized lysozyme [1]", "value": "binds"}]}, {"molecule": "NC[C@@H]1O[C@H](O[C@H]2[C@@H](O)[C@H](O[C@@H]3[C@@H](O)[C@H](N)C[C@H](N)[C@H]3O[C@H]3O[C@H](CN)[C@@H](O)[C@H](O)[C@H]3N)O[C@@H]2CO)[C@H](N)[C@@H](O)[C@@H]1O", "note": "[neomycin B]", "values": [{"measurement": "binding to the lysozyme affinity column (qualitative)", "setting": "immobilized lysozyme [1]", "value": "binds"}, {"measurement": "binding by the immobilized lysozyme", "setting": "immobilized lysozyme [1]", "value": "completely bound"}]}, {"molecule": "CN[C@@H]1[C@H](O)[C@H](NC)[C@H]2O[C@@]3(O)C(=O)C[C@@H](C)O[C@H]3O[C@@H]2[C@H]1O", "note": "[spectinomycin]", "values": [{"measurement": "displacement or competition for the binding sites (bound spectinomycin-FITC)", "setting": "lysozyme; 1-step equilibrium assay, 20 ng unlabeled spectinomycin", "value": 34, "unit": "%"}, {"measurement": "competition of unlabeled drug for the binding sites", "setting": "lysozyme; 1-step equilibrium assay, dilute spectinomycin-FITC (1.22 ng)", "value": 78, "unit": "%"}, {"measurement": "displacement or competition for the binding sites (bound spectinomycin-FITC)", "setting": "lysozyme; 2-step assay, 20 ng unlabeled spectinomycin added", "value": 96, "unit": "%"}, {"measurement": "displacement of bound spectinomycin-FITC", "setting": "lysozyme; 2-step assay, dilute spectinomycin-FITC (1.22 ng)", "value": "not displaced"}]}, {"molecule": "[H]/N=C(/N)N[C@H]1[C@H](O)[C@@H](O)[C@H](O[C@@H]2O[C@@H](C)[C@](O)(C=O)[C@H]2O[C@@H]2O[C@@H](CO)[C@H](O)[C@@H](O)[C@@H]2NC)[C@@H](N/C(N)=N\\[H])[C@@H]1O", "note": "[streptomycin]", "values": [{"measurement": "binding to the lysozyme affinity column (qualitative)", "setting": "immobilized lysozyme [1]", "value": "binds"}]}, {"molecule": "Neomycin", "values": [{"measurement": "loss of activity of residues in eggs", "setting": "[4]; eggs", "value": 25, "unit": "%"}, {"measurement": "loss of activity of residues in eggs", "setting": "[4]; frying eggs", "value": "little or no loss of activity"}, {"measurement": "loss of activity of residues in eggs", "setting": "[4]; soft boiling and hard boiling", "value": "little or no loss of activity"}]}, {"molecule": "gentamicin", "values": [{"measurement": "binding to the lysozyme affinity column (qualitative)", "setting": "immobilized lysozyme [1]", "value": "binds"}, {"measurement": "binding by the immobilized lysozyme", "setting": "immobilized lysozyme [1]", "value": "completely bound"}, {"measurement": "binding by immobilized α-lactalbumin (qualitative)", "setting": "[2]; FIG. 4", "value": "incomplete binding"}]}]}
